Values joined by “and” are separate entries in the source; they are usually repeats but may differ in a detail not shown here. Equal values may be shown once.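 Where inhibition never reached the appropriate level, the endpoint shown equals the highest concentration tested. Otherwise, values were interpolated linearly from a five-concentration, 48-hour dose response in 96-well plates. The concentration for 50% growth inhibition is given as GI50. TGI: concentration producing complete growth inhibition.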
Legend:
Assay in all cases: DTP human tumour cell line panel, 48 h
RPMI-8226 leukemia = system: RPMI-8226 leukemia
SR leukemia = system: SR leukemia
A549 NSCLC = system: A549 NSCLC
CAKI-1 renal = system: CAKI-1 renal
BT-549 breast = system: BT-549 breast
MALME-3M melanoma = system: MALME-3M melanoma
SF-295 CNS = system: SF-295 CNS
HT29 colon = system: HT29 colon
UACC-257 melanoma = system: UACC-257 melanoma
MDA-MB-231 breast = system: MDA-MB-231 breast
MDA-MB-435 = system: MDA-MB-435
NCI/ADR-RES ovarian = system: NCI/ADR-RES ovarian
RXF 393 renal = system: RXF 393 renal
NCI-H226 lung = system: NCI-H226 lung
MCF7 breast = system: MCF7 breast
HCT-116 colon = system: HCT-116 colon
DU-145 prostate = system: DU-145 prostate
HS 578T breast = system: HS 578T breast
OVCAR-4 ovarian = system: OVCAR-4 ovarian
UO-31 renal = system: UO-31 renal
TK-10 renal = system: TK-10 renal
786-0 renal = system: 786-0 renal
COLO 205 colon = system: COLO 205 colon
NCI-H522 lung = system: NCI-H522 lung
HOP-62 NSCLC = system: HOP-62 NSCLC
PC-3 prostate = system: PC-3 prostate
SW-620 colon = system: SW-620 colon
EKVX NSCLC = system: EKVX NSCLC
LOX IMVI melanoma = system: LOX IMVI melanoma
ACHN renal = system: ACHN renal
SF-539 CNS = system: SF-539 CNS
NCI-H23 lung = system: NCI-H23 lung
NCI-H460 lung = system: NCI-H460 lung
IGROV1 ovarian = system: IGROV1 ovarian
SK-MEL-5 melanoma = system: SK-MEL-5 melanoma
CCRF-CEM leukemia = system: CCRF-CEM leukemia
SK-MEL-2 melanoma = system: SK-MEL-2 melanoma
SF-268 CNS = system: SF-268 CNS
UACC-62 melanoma = system: UACC-62 melanoma
HL-60(TB) leukemia = system: HL-60(TB) leukemia
A498 renal = system: A498 renal
OVCAR-8 ovarian = system: OVCAR-8 ovarian
K-562 leukemia = system: K-562 leukemia
M14 melanoma = system: M14 melanoma
MOLT-4 leukemia = system: MOLT-4 leukemia
HCT-15 colon = system: HCT-15 colon
OVCAR-3 ovarian = system: OVCAR-3 ovarian
SN12C renal = system: SN12C renal
HCC-2998 colon = system: HCC-2998 colon
T-47D breast = system: T-47D breast
U251 CNS = system: U251 CNS
SNB-19 CNS = system: SNB-19 CNS
SK-OV-3 ovarian = system: SK-OV-3 ovarian
KM12 colon = system: KM12 colon
HOP-92 NSCLC = system: HOP-92 NSCLC
SNB-75 CNS = system: SNB-75 CNS
SK-MEL-28 melanoma = system: SK-MEL-28 melanoma
OVCAR-5 ovarian = system: OVCAR-5 ovarian

Q: What does the source list for `C=CC(=O)Nc1cc(Nc2nccc(-c3cn(C)c4ccccc34)n2)c(OC)cc1N(C)CCN(C)C`?
A: GI50 (RPMI-8226 leukemia): 1950 nM and 1450 nM; TGI (RPMI-8226 leukemia): 6.65 µM and 4.08 µM; GI50 (SR leukemia): 1290 nM and 1620 nM; TGI (SR leukemia): 4.94 µM and 3.77 µM; GI50 (A549 NSCLC): 1400 nM and 1290 nM; TGI (A549 NSCLC): 4.17 µM and 3.87 µM; GI50 (CAKI-1 renal): 343 nM and 916 nM; TGI (CAKI-1 renal): 6.75 µM and 2.49 µM; GI50 (BT-549 breast): 3.52 µM and 2.95 µM; TGI (BT-549 breast): 12.8 µM and > 10 µM; GI50 (MALME-3M melanoma): 2160 nM and 1710 nM; TGI (MALME-3M melanoma): 3.97 µM and 3.28 µM; GI50 (SF-295 CNS): 2760 nM and 2020 nM; TGI (SF-295 CNS): 8.31 µM and 4.61 µM; GI50 (HT29 colon): 1840 nM and 1510 nM; TGI (HT29 colon): 4.07 µM and 3.24 µM; GI50 (UACC-257 melanoma): 1710 nM and 1800 nM; TGI (UACC-257 melanoma): 3.27 µM and 3.37 µM; GI50 (MDA-MB-231 breast): 1590 nM and 1700 nM; TGI (MDA-MB-231 breast): 3.45 µM and 3.6 µM; GI50 (MDA-MB-435): 1620 nM and 1640 nM; TGI (MDA-MB-435): 3.03 µM and 3.14 µM; GI50 (NCI/ADR-RES ovarian): 1850 nM and 1450 nM; TGI (NCI/ADR-RES ovarian): 9.57 µM and 8.18 µM; GI50 (RXF 393 renal): 1450 nM and 1340 nM; TGI (RXF 393 renal): 3.1 µM and 2.98 µM; GI50 (NCI-H226 lung): 3930 nM and 1390 nM; TGI (NCI-H226 lung): 13.1 µM and 3.4 µM; GI50 (MCF7 breast): 1500 nM and 1480 nM; TGI (MCF7 breast): 3.47 µM and 3.6 µM; GI50 (HCT-116 colon): 1720 nM and 1510 nM; TGI (HCT-116 colon): 3.3 µM and 2.96 µM; GI50 (DU-145 prostate): 1760 nM and 1330 nM; TGI (DU-145 prostate): 12 µM and > 10 µM; GI50 (HS 578T breast): 3320 nM and 1890 nM; TGI (HS 578T breast): 16 µM and 9.69 µM; GI50 (OVCAR-4 ovarian): 2740 nM and 2420 nM; TGI (OVCAR-4 ovarian): 20.5 µM and > 10 µM; GI50 (UO-31 renal): 604 nM and 444 nM; TGI (UO-31 renal): 4.09 µM and 2.08 µM; GI50 (TK-10 renal): 61.5 nM and 82.4 nM; TGI (TK-10 renal): 15.5 µM and 2.02 µM; GI50 (786-0 renal): 1400 nM and 1380 nM; TGI (786-0 renal): 2940 nM and 2900 nM; GI50 (COLO 205 colon): 1620 nM and 1430 nM; TGI (COLO 205 colon): 3.14 µM and 2.99 µM; GI50 (NCI-H522 lung): 169 nM and 65.7 nM; TGI (NCI-H522 lung): 1980 nM and 1530 nM; GI50 (HOP-62 NSCLC): 4.07 µM and 3.58 µM; TGI (HOP-62 NSCLC): 18.3 µM and > 10 µM; GI50 (PC-3 prostate): 2740 nM and 2110 nM; TGI (PC-3 prostate): 12.1 µM and 5.55 µM; GI50 (SW-620 colon): 1830 nM; TGI (SW-620 colon): 3.76 µM and 4.43 µM; GI50 (EKVX NSCLC): 751 nM and 200 nM; TGI (EKVX NSCLC): 4.08 µM and 3.4 µM; GI50 (LOX IMVI melanoma): 1750 nM and 1410 nM; TGI (LOX IMVI melanoma): 3.55 µM and 2.86 µM; GI50 (ACHN renal): 272 nM and 479 nM; TGI (ACHN renal): 1950 nM and 1880 nM; GI50 (SF-539 CNS): 1700 nM and 1630 nM; TGI (SF-539 CNS): 3.29 µM and 3.16 µM; GI50 (NCI-H23 lung): 4.76 µM and 3.39 µM; TGI (NCI-H23 lung): 17.9 µM and > 10 µM; GI50 (NCI-H460 lung): 2180 nM and 2140 nM; TGI (NCI-H460 lung): 5.15 µM and 6.09 µM; GI50 (IGROV1 ovarian): 1140 nM and 407 nM; TGI (IGROV1 ovarian): 7.58 µM and 2.68 µM; GI50 (SK-MEL-5 melanoma): 1720 nM; TGI (SK-MEL-5 melanoma): 3.13 µM; GI50 (CCRF-CEM leukemia): 1610 nM and 2190 nM; TGI (CCRF-CEM leukemia): 5.84 µM and 5.33 µM; GI50 (SK-MEL-2 melanoma): 2080 nM and 1940 nM; TGI (SK-MEL-2 melanoma): 4.04 µM and 3.87 µM; GI50 (SF-268 CNS): 1950 nM and 1870 nM; TGI (SF-268 CNS): 7.02 µM and > 10 µM; GI50 (UACC-62 melanoma): 1850 nM and 1710 nM; TGI (UACC-62 melanoma): 3.61 µM and 3.4 µM; GI50 (HL-60(TB) leukemia): 1470 nM and 1710 nM; TGI (HL-60(TB) leukemia): 3.33 µM and 3.99 µM; GI50 (A498 renal): 1110 nM and 1480 nM; TGI (A498 renal): 3.25 µM and 4.12 µM; GI50 (OVCAR-8 ovarian): 2040 nM and 1570 nM; TGI (OVCAR-8 ovarian): 5.89 µM and 4.18 µM; GI50 (K-562 leukemia): 1730 nM and 349 nM; TGI (K-562 leukemia): 5.2 µM and 1.73 µM; GI50 (M14 melanoma): 1910 nM and 1730 nM; TGI (M14 melanoma): 3.6 µM and 3.32 µM; GI50 (MOLT-4 leukemia): 1770 nM and 1490 nM; TGI (MOLT-4 leukemia): 5.08 µM and 3.66 µM; GI50 (HCT-15 colon): 1610 nM and 1420 nM; TGI (HCT-15 colon): 3.69 µM and 3.27 µM; GI50 (OVCAR-3 ovarian): 1400 nM and 1380 nM; TGI (OVCAR-3 ovarian): 2930 nM and 3040 nM; GI50 (SN12C renal): 2200 nM and 1200 nM; TGI (SN12C renal): 8.58 µM and 4.36 µM; GI50 (HCC-2998 colon): 1560 nM and 1480 nM; TGI (HCC-2998 colon): 3.37 µM and 2.98 µM; GI50 (T-47D breast): 815 nM and 363 nM; TGI (T-47D breast): 11.6 µM and > 10 µM; GI50 (U251 CNS): 1630 nM and 1710 nM; TGI (U251 CNS): 3.26 µM and 3.35 µM; GI50 (SNB-19 CNS): 2690 nM and 2060 nM; TGI (SNB-19 CNS): 18.4 µM and > 10 µM; GI50 (SK-OV-3 ovarian): 50.1 nM and 31.1 nM; TGI (SK-OV-3 ovarian): 18.1 µM and > 10 µM; GI50 (KM12 colon): 2310 nM and 2120 nM; TGI (KM12 colon): 5.49 µM and 5.41 µM; GI50 (HOP-92 NSCLC): 793 nM and 416 nM; TGI (HOP-92 NSCLC): 8.39 µM and 3.49 µM; GI50 (SNB-75 CNS): 3.52 µM and 2.57 µM; TGI (SNB-75 CNS): 16.4 µM and > 10 µM; GI50 (SK-MEL-28 melanoma): 1630 nM and 1620 nM; TGI (SK-MEL-28 melanoma): 3.07 µM and 3.12 µM; GI50 (OVCAR-5 ovarian): 1300 nM and 1290 nM; TGI (OVCAR-5 ovarian): 2.95 µM and 6.55 µM
